In ChEMBL document CHEMBL1157155, “Bioactive alkenylphenols from Piper obliquum” (Bioorg Med Chem, 2008):
In brackets after ≈: the same amount, converted by molar mass. Activity calls are given as the source filed them. The rule behind the calls is not given here.

Columns and labels:
Jurkat [1] = assay: (§1) Effect on NF-kappaB expressed in Jurkat 5.1 cells assessed as inhibition of TNF-alpha-induced HIV1-LTR transactivation preincubated for 15 mins by luciferase gene reporter assay; type: cell-based
Escherichia coli = assay: Antibacterial activity against Escherichia coli after 24 hrs by broth microdilution method; type: functional
[2] = system: Staphylococcus epidermidis; assay: Antibacterial activity against Staphylococcus epidermis after 24 hrs by broth microdilution method; type: functional
[3] = as §1; type: cell-based
[4] = Effect on NF-kappaB expressed in HeLa-Tet-On cells assessed as inhibition of doxycyclin-induced HIV1-LTR transactivation preincubated for 15 mins by luciferase gene reporter assay; type: cell-based
Jurkat [5] = assay: Effect on NF-kappaB expressed in Jurkat 5.1 cells assessed as inhibition of TNF-alpha-induced IkappaBalpha degradation at 10 uM preincubated for 15 mins by Western blot; type: cell-based
Jurkat [6] = assay: Effect on NF-kappaB expressed in Jurkat 5.1 cells assessed as inhibition of TNF-alpha-induced IkappaBalpha phosphorylation at 10 uM preincubated for 15 mins by Western blot; type: cell-based

Row | SMILES | Activity (Jurkat [1]) | MIC (Escherichia coli) | MIC [2] | IC50 [3] | Activity [4] | Activity (Jurkat [5]) | Activity (Jurkat [6])
1 | CC(C)=CCC/C(C)=C/CCC1(C)CC(=O)c2cc(C(=O)O)ccc2O1 (configuration not stated) | inactive | 100 µg/mL (≈ 281 µM) | 50 µg/mL (≈ 140 µM) | – | – | – | –
2 | COc1ccc(/C=C/C(=O)c2c(O)cc(OC)c(OC)c2OC)cc1OC | inactive | 10 µg/mL (≈ 26.7 µM) | 10 µg/mL (≈ 26.7 µM) | – | – | – | –
3 | CC(C)=CCC/C(C)=C/CC/C(C)=C/Cc1cc(C(=O)O)ccc1O | inactive | – | – | – | – | – | –
4 | CC1(C)S[C@@H]2[C@H](NC(=O)[C@H](N)c3ccccc3)C(=O)N2[C@H]1C(=O)O [AMPICILLIN] | – | 5 µg/mL (≈ 14.3 µM) | 1 µg/mL (≈ 2.86 µM) | – | – | – | –
5 | CCCCCCCCC/C=C/CCCc1ccc(O)cc1 [OBLIQUOL A] | – | 5 µg/mL (≈ 17.3 µM) | 2.5 µg/mL (≈ 8.67 µM) | – | – | – | –
6 | CCCCCCCCC/C=C/CCCc1ccc(O)c(O)c1 [OBLIQUOL B] | – | 5 µg/mL (≈ 16.4 µM) | 5 µg/mL (≈ 16.4 µM) | 5 µM | inactive | Active | Active
